Data from patent publication US20090098548A1, “MODULATORS OF ENZYMATIC NUCLEIC ACID ELEMENTS MOBILIZATION” (priority 2004, published 2009).
Entries after “also recorded” stand apart in the source; their conditions may differ.

Assays:
Tn5 transposase = target: T1, Tn5 transposase (Escherichia coli, UniProt Q46731, E54K/L372P/M56A); format: binding
T1 construct: made in house
Description: For FP analysis, 60 μL reactions were analyzed using the FP protocol on a Wallac Victor V plate reader and a 7% native polyacrylamide gel was used in gel shift assays. For compound screening and subsequent analysis, 1 μL of either DMSO or test compound (final concentration 80 KIM) was added to the synapsis reactions. Compound screening was carried out using a Beckman Coulter Biomek FX in a 384 well format. Compounds identified as hits were rescreened using gel shift assays under synapsis conditions with a 120 μM compound concentration. IC50 values were obtained by fitting inhibitor titration data (0, 0.01, 0.05, 0.1, 0.5, 2.5, 10, 20, 35, 50, 100, 200, 400, 800 μM) to an exponential decay.

[1] = system: restriction enzyme BsmA I; assay: Inhibition of the restriction enzyme BsmA I (compound specificity); format: biochemical; conditions: 120 μM compound
Description: Inhibition of the restriction enzyme BsmA I was analyzed to determine compound specificity. Reactions were carried out in 2×NEB Buffer 3 with 160 nM dsDNA, 10 units of BsmA I (New England Biolabs), and 120 μM lead compound. Reactions were incubated at 55° C. for one hour followed by a 20 minute 80° C. heat inactivation step prior to gel electrophoresis. Samples were loaded onto a 9% native polyacrylamide gel and run at 300V for 2.5 hours. Gels were subsequently imaged and quantitated as described for the synapsis assays.

HIV-1 = system: HIV-1
Description: HIV-1 transduction assay and inhibitory screen: 10,000 Ghost-R5 cells per well were plated in a 384 well plate in 49 μL media. 18 hours after plating, 1 μL of inhibitory compound, dissolved in DMSO, was added and gently mixed into solution. Following a 1 hour 37° C. incubation, HIV-1 virions were added in a final infectious volume of 100 μL. 44-48 hours after infection, 87 μL of media was removed from each well, and 13 μL/well of Bright-Glo luciferase detection reagent (Promega) was added. After a 2 minute incubation, the plates were read on a multiwell plate luminometer.
In parallel, cells infected with virus and compound were assayed for luciferase expression by the addition of […] of Bright-Glo reagent, as described above. In this way, effect of the inhibitory compounds on luciferase expression brought about by successful transduction was measured in the constant presence of the compounds.

[2] = system: HIV reverse transcription; assay: Quantitative real-time PCR of reverse transcripts in acutely infected cells; format: cell-based, HIV-1; conditions: 75 μM inhibitor, QPCR
Description: Quantitative real-time PCR of reverse transcripts, detection of transduction in newly infected cells, and effect of compounds on established provirus expression in stably infected cells: 10,000 Ghost-R5 cells were plated in 96 well dishes, treated with compound in a total volume of 75 μL, and incubated at 37° C. for 1 hour. Virus was then added in an additional volume of 25 μL. The final infectious volume was 100 μL, the final DMSO concentration was 1%, and the final compound concentration was as indicated. DNA was harvested using the DNeasy kit (Qiagen) 24 hours after infection in the constant presence of inhibitory compounds. Late DNA products of HIV reverse transcription were quantitated using the primers MH531 and MH532, and the probe LTR-P, as described in Burke, T. R. et al., J Med Chem 38:4171-8, 1995, herein incorporated by reference in its entirety.

[3] = system: luciferase expression from proviral DNA; assay: Established provirus luciferase expression in stably infected Ghost-R5 cells; format: cell-based, HIV-1; conditions: 75 μM inhibitor, chronically infected cells
Description: To assess the potential effects of the inhibitory compounds on post-integration events such as transcription, translation, and luciferase enzyme stability and activity, Ghost-R5 cells stably infected several weeks earlier with the same virus preparation were incubated with inhibitory compound in 96 well dishes and luciferase activity was monitored 48 hours later by the addition of 100 μL of Bright-Glo reagent to each well, as described above.

HIV-1 integrase = HIV-1 integrase (Human immunodeficiency virus type 1 group M subtype B, UniProt P04585); assay: HIV-1 integrase assay (3' strand processing, PAGE); format: biochemical; design: made in house
Description: HIV-1 integrase assay: HIV-1 integrase activity was measured as described in Daniel, R. et al., AIDS Res Hum Retroviruses 20:135-44, 2004 (incorporated by reference in its entirety), except that 1.0 μL of either DMSO or inhibitor were added to the reactions. Briefly, HIV-1 integrase (1 μM, final concentration) was pre-incubated with various concentrations of inhibitor at 30° C. for 30 min. A 21-base pair ^32P labeled substrate (1×10^6 dpm), representing the U5 end of the viral genome, and MnCl2 (10 mM, final concentration) were subsequently added to the reaction. The reaction proceeded for 15 min. at 37° C. The reactions were subsequently quenched using EDTA (10 mM, final concentration), and the products separated on a 20% denaturing polyacrylamide gel.

Ghost-R5 cells = assay: Cytotoxicity assay (Cell Titer Glo); format: cell-based
Description: Cytotoxicity assay: Cytotoxicity assays were performed exactly as the infection assay described above, except media without virus was added following compound addition, and Cell Titer Glo (Promega) viability reagent was added in place of Bright Glo.

SMILES | inhibition of transposase assembly (in words) (Tn5 transposase) | inhibition of BsmA I activity [1] | inhibition of HIV-1 infection in cells (in words) (HIV-1) | effect on reverse transcription (viral DNA synthesis) [2] | effect on luciferase expression from proviral DNA [3] | inhibition of integrase in vitro (in words) (HIV-1 integrase) | effect on gross cell viability (Ghost-R5 cells; 75 μM inhibitor) | LD50 relative to ED50 (Ghost-R5 cells; Ghost-R5 cells, cytotoxicity vs transduction)
O=C(/C=C/c1ccccc1)C1=C(O)C(=O)N(c2cccc(C(F)(F)F)c2)C1c1ccc([N+](=O)[O-])cc1 (stereo not shown) [compound 10-F] | inhibit | partially inhibits | inhibit | either uninhibited, or only inhibited to a small extent; also recorded: no significant inhibitory effect | no significant inhibitory effect | inhibit |  | 
O=C(/C=C/c1ccccc1)C1=C(O)C(=O)N(c2ccccc2)C1c1cccc([N+](=O)[O-])c1 (stereo not shown) [compound 10] | inhibit |  | inhibit | either uninhibited, or only inhibited to a small extent; also recorded: no significant inhibitory effect | no significant inhibitory effect | inhibit | no significant inhibitory effect | at least 2 fold
